In general, Ki refers to the equilibrium dissociation constant of an inhibitor or competing ligand from its target. Read a high Ki as a looser hold on the target. The EC50 is the concentration that produces a half-maximal response. The Emax is the size of the effect at its maximum, as opposed to the concentration needed.

The values that follow come from patent publication US10874669B2 (WAYNE STATE UNIVERSITY, priority 2018, dated 2020).

Like-named read-outs stand apart in the source and are kept apart here.

The subject of data set [1] is PC12 cells. The data set can be described thus: MTT cell viability, compounds alone. Format: cell-based, rat. How it is done:
To investigate the neuroprotection property of the selected target molecules (−)-91b, (−)-95a and (−)-95c against 6-OHDA-induced cytotoxicity, we used dopaminergic rat adrenal Pheochromocytoma PC12 cells. As reported above, treatment of PC12 cells with 6-OHDA at 75 μM for 24 h produced ˜50% loss in cells viability and this concentration was used in subsequent experiments. […] However, (−)-95a produced some incremental toxicity starting at 20 μM dose (FIG. 4B). The potential neuroprotective effects of (−)-91b, (−)-95a and (−)-95c against 6-OHDA-induced toxicity were evaluated next. […] At those concentration both drugs increased cell survival by ˜20% compared to 6-OHDA (75 μM) treated alone (FIGS. 4D and 4F), indicating neuroprotective effect of these drugs. […] This could be due to the fact that the compound by itself produced toxicity to the cells at doses ≥20 μM and the presence of 6-OHDA enhanced the toxicity (FIG. 4B).
PC12 cells (ATCC CRL1721.1, Manassas, Va., USA), a rat adrenal pheochromocytoma cell line, were cultured in T-75 flasks (Greiner Bio One, Frickenhausen, Germany) and maintained in RPMI 1640 medium supplemented with 10% heat inactivated horse serum, 5% fetal bovine serum, 100 U/ml penicillin, and 100 μg/mL streptomycin at 37° C. in 95% air/5% CO2. Stock solutions of (−)-91b, (−)-95a, (−)-95c, and 6-hydroxydopamine (6-OHDA) were prepared in dimethylsulfoxide (DMSO) and aliquots were stored at −20° C. and −80° C., respectively. […]
PC12 cells were plated at 17000 cells/well density in 100 μL of media in 96-well plates and incubated at 37° C. under 5% CO2 atmosphere for 24 h. […] The absorbance was measured on a microplate reader (Biotek Epoch, Winooski, Vt., USA) at 570 nm with background correction performed at 690 nm. Data from at least three experiments were analyzed using GraphPad software (version 6, San Diego, Calif., USA). Cell viability was defined as […] compared to untreated controls.

The target in the next data set is cloned rat D2L receptors (Rattus norvegicus (Rat), UniProt P61169). The data set can be described thus: [3H]spiroperidol competition binding, rat D2L receptors in HEK-293 cells. To be noted: values of Table 3; for Ki: rat D2 in HEK-293 cells; for D2/D3: ratio of Ki values. An excerpt:
All these procedures were described by us previously.

Another data set addresses human DA D2 receptors (Homo sapiens (Human), UniProt P14416). The data set can be described thus: [35S]GTPγS binding stimulation, human D2 receptors in CHO cells. Format: biochemical. To be noted: for Emax: compared with maximum stimulation by full agonist DA.
Data set [2] concerns PC12 cells. Briefly: DCFDA fluorescence assay of intracellular ROS induced by 6-OHDA. Format: cell-based, rat. To be noted: 20 μM, 24 h pretreatment, then 75 μM 6-OHDA 1 h. Here is the method: Experimental detection of reactive oxygen species (ROS) produced by 6-OHDA was carried out by DCFDA assay. 6-OHDA, a well known neurotoxin, produces oxidative stress similar to what is observed in PD and the mechanism of neurotoxicity of 6-OHDA takes place via its auto-oxidation and subsequent generation of hydrogen peroxide. DCFDA is a non-fluorogenic dye but in the presence of ROS, it is oxidized to produce DCF which produces florescence. We have previously shown that 6-OHDA causes cell death in a dose-dependent manner. We chose 75 μM 6-OHDA as we have shown that this dose induces 40-50% cell death. […] However, the test compounds could dose dependently decrease the production of ROS induced by 6-OHDA (75 μM) in PC12 cells. In this regard, highest dose of all the three compounds was the most efficacious in producing significant antioxidant effect.
PC12 cells (ATCC CRL1721.1, Manassas, Va., USA), a rat adrenal pheochromocytoma cell line, were cultured in T-75 flasks (Greiner Bio One, Frickenhausen, Germany) and maintained in RPMI 1640 medium supplemented with 10% heat inactivated horse serum, 5% fetal bovine sérum, 100 U/ml penicillin, and 100 μg/mL streptomycin at 37° C. in 95% air/5% CO2. […]
PC12 cells were plated at 30,000 cells/well density in 100 μL media in 96-well black plates and incubated at 37° C. under 5% CO2 atmosphere for 24 h. […] After incubation for 1 h, the fluorescence was measured using spectrophotometer fluorescence generated microplate reader (Biotek Epoch, Winooski, Vt., USA) at excitation 497 nm and emission at 527 nm. […] The specific fluorescence emission was calculated after subtraction of the DCFDA untreated control cells from the DCFDA treated cells for both the background and 1 h treatment conditions. This was followed by the division of the 1 h treatment data by the background activity which was determined from vials before treatment with 6-OHDA, to derive the final data point.

Sequence of cloned rat D2L receptors (P61169 whole entry): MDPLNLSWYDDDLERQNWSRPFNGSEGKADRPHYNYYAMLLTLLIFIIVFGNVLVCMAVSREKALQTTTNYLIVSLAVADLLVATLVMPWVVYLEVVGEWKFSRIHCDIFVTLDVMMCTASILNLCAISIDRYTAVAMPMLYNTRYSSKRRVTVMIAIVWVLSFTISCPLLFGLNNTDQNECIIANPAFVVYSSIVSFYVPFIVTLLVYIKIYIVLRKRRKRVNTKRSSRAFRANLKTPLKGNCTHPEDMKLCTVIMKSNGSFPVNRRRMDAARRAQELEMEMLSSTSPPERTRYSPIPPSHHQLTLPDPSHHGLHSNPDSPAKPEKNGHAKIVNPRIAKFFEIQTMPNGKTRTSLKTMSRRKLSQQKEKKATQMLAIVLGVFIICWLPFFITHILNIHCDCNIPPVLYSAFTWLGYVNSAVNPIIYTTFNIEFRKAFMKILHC
Sequence of human DA D2 receptors (P14416 whole entry): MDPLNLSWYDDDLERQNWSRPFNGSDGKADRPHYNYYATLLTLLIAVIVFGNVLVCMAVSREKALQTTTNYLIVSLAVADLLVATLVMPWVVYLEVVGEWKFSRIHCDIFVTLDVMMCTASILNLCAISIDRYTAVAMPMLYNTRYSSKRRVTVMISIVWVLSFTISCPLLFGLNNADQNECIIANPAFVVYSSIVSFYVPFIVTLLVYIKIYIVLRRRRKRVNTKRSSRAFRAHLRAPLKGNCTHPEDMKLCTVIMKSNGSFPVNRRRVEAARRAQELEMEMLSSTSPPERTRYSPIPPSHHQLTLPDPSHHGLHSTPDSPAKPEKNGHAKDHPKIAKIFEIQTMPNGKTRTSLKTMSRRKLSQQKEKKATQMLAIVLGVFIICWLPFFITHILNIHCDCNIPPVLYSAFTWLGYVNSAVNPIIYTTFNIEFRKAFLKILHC

`CCCN(CCN1CCN(c2ccc3[nH]c4ccccc4c3c2)CC1)[C@H]1CCc2nc(N)sc2C1` [(−)-91b, (S)—N^6-(2-(4-(9H-carbazol-3-yl)piperazin-1-yl)ethyl)-N^6-propyl-4,5,6,7-tetrahydrobenzo[d]thiazole-2,6-diamine]: in the data set with PC12 cells [1] (0.01-30 μM, compared to untreated controls), the “cell viability, compound alone” value is on record as “no cells loss”. Moreover, on cloned rat D2L receptors, the affinity, expressed as Ki, was 135 nM and the D2/D3 was 35. Further, the EC50 on human DA D2 receptors (CHO cells, read-out: EC50 (GTPγS), D2) was determined as 48.7 nM. For the same molecule, the Emax at human DA D2 receptors fell in the range of 87 to 93%. In the data set with PC12 cells [2], the “reduction in ROS” value is given as 76%.

With `CCCN(CCN1CCN(c2ccc3c(c2)[nH]c2ccccc23)CC1)[C@H]1CCc2c(O)cccc2C1` [Compound (−)-95a, (S)-6-((2-(4-(9H-carbazol-2-yl)piperazin-1-yl)ethyl)(propyl)amino)-5,6,7,8-tetrahydronaphthalen-1-ol], the “dose at which compound alone produced toxicity” value in the data set with PC12 cells [1] (compound alone) is ≥ 20 µM. Besides, on cloned rat D2L receptors, the Ki worked out at 71.2 nM and the D2/D3 is reported as 177. Moreover, at human DA D2 receptors, the response was half-maximal at 0.87 nM (EC50) and the Emax fell in the range of 85 to 92%. In addition, in the data set with PC12 cells [2], the “reduction in ROS” value was found to be 93%.
